“Also recorded” adds a separate entry of the source. Like-named read-outs stand apart in the source and are kept apart here.
Assays:
PBMCs = conditions: cited from earlier work
[1] = system: HIV envelope protein gp160; conditions: cited from earlier work; for T-cell proliferation responses: two F1 hybrid mouse strains (B6C3 F1 and A.SW×Balb/c F1); for T-cell proliferative response to immunizing peptide and HIV Env protein gp160 / antibodies recognizing recombinant gp160: immunized mice
[2] = system: peptide-pulsed autologous EBV-transformed B cells (B-LCL); assay type: cell-based, human
[3] = system: PBMCs from control and HIV-1 infected chimpanzees; assay type: cell-based, chimpanzee
[4] = system: anti-peptide antibodies in serum; assay type: binding, human; set-up: key to Anti-peptide antibody response: +, Positive (titer above control); −, Negative (titer below control)
[5] = system: anti-peptide antibodies in serum; assay type: binding, chimpanzee; set-up: key: +, Positive (Titer > 1:100); −, Negative (Titer < 1:100)
[6] = system: PBMCs from normal and HIV-positive individuals; assay type: cell-based, human

Sequence: GTGPCTNVSTVQC [Peptide 116]
- proliferative response of PBMCs (PBMCs; monkey, in vivo): weak responses
- T-cell proliferation responses [1]: relatively good T-cell proliferation responses

Sequence: FLGFLGAAGSTMGAASLTLTVQARQ [Peptide 63]
- proliferative response of PBMCs (PBMCs; monkey, in vivo): good response
- T-cell proliferative response to immunizing peptide and HIV Env protein gp160 [1]: induced a T-cell response against both the immunizing peptide and the HIV Env protein; also recorded: induced proliferative responses to both the immunizing peptide
- antibodies recognizing recombinant gp160 [1]: did not produce antibodies that could recognize recombinant gp160
- T-cell proliferation responses [1]: relatively good T-cell proliferation responses
- % Specific lysis at various E:T ratios 12.5:1 [2]: 0%
- % Specific lysis at various E:T ratios 25:1 [2]: 7.9%
- % Specific lysis at various E:T ratios 50:1 [2]: 8.8%
- % Specific lysis at various E:T ratios 100:1 [2]: 17.6%
- CTL activity against peptide-pulsed autologous B-LCLs [2]: significant CTL activity
- specific lysis of peptide-pulsed target cells [2]: also observed

Sequence: CRIKQIINMWQGVGKAMYA [Peptide 122]
- T-cell proliferative response ([3]; chimpanzee 40, control normal): − (−, Negative (SI < 2.0))
- T-cell proliferative response ([3]; chimpanzee 62, HIV-infected): − (−, Negative (SI < 2.0))
- T-cell proliferative response ([3]; chimpanzee 69, HIV-infected): + (+, Positive (Stimulation Index [SI] > 2.0))
- T-cell proliferative response ([3]; chimpanzee 73, control normal): − (−, Negative (SI < 2.0))
- T-cell proliferative response ([3]; chimpanzee 80, HIV-infected): + (+, Positive (Stimulation Index [SI] > 2.0))
- T-cell proliferative response ([3]; chimpanzee 99, HIV-infected): − (−, Negative (SI < 2.0))
- T-cell proliferative response ([3]; chimpanzee 100, HIV-infected): + (+, Positive (Stimulation Index [SI] > 2.0))
- T-cell proliferative response ([3]; chimpanzee 139, HIV-infected): − (−, Negative (SI < 2.0))
- T-cell proliferative response ([3]; chimpanzee 175, HIV-infected): + (+, Positive (Stimulation Index [SI] > 2.0))
- T-cell proliferative response ([3]; chimpanzee 247, HIV-infected): − (−, Negative (SI < 2.0))
- T-cell proliferative response ([3]; chimpanzee 310, HIV-infected): − (−, Negative (SI < 2.0))
- number of HIV+ individuals with positive antibody titers (<1:1280) [4]: None
- Anti-peptide antibody response ([4]; HIV-positive patient MSf): −
- Anti-peptide antibody response ([4]; HIV-positive patient MSm): −
- Anti-peptide antibody response ([4]; HIV-positive patient eight): −
- Anti-peptide antibody response ([4]; HIV-positive patient eleven): −
- Anti-peptide antibody response ([4]; HIV-positive patient fifteen): −
- Anti-peptide antibody response ([4]; HIV-positive patient five): −
- Anti-peptide antibody response ([4]; HIV-positive patient four): −
- Anti-peptide antibody response ([4]; HIV-positive patient fourteen): −
- Anti-peptide antibody response ([4]; HIV-positive patient nine): −
- Anti-peptide antibody response ([4]; HIV-positive patient one): −
- Anti-peptide antibody response ([4]; HIV-positive patient seven): −
- Anti-peptide antibody response ([4]; HIV-positive patient six): −
- Anti-peptide antibody response ([4]; HIV-positive patient ten): −
- Anti-peptide antibody response ([4]; HIV-positive patient thirteen): −
- Anti-peptide antibody response ([4]; HIV-positive patient three): −
- Anti-peptide antibody response ([4]; HIV-positive patient twelve): −
- Anti-peptide antibody response ([4]; HIV-positive patient two): −
- Anti-peptide antibody response ([4]; Normal-1 (HIV-seronegative)): −
- Anti-peptide antibody response ([4]; Normal-2 (HIV-seronegative)): −
- Anti-peptide antibody response [5]: −
- Anti-peptide antibody response ([5]; chimpanzee 40, control normal): −
- Anti-peptide antibody response ([5]; chimpanzee 73, control normal): −
- number of HIV+ individuals with positive proliferative responses ([6]; 17 HIV+ individuals tested): seven
- T-cell proliferative response ([6]; HIV-positive patient MSf): − (−, Negative (SI < 2.0))
- T-cell proliferative response ([6]; HIV-positive patient MSm): − (−, Negative (SI < 2.0))
- T-cell proliferative response ([6]; HIV-positive patient eight): − (−, Negative (SI < 2.0))
- T-cell proliferative response ([6]; HIV-positive patient eleven): − (−, Negative (SI < 2.0))
- T-cell proliferative response ([6]; HIV-positive patient fifteen): + (+, Positive (Stimulation Index [SI] > 2.0))
- T-cell proliferative response ([6]; HIV-positive patient five): − (−, Negative (SI < 2.0))
- T-cell proliferative response ([6]; HIV-positive patient four): − (−, Negative (SI < 2.0))
- T-cell proliferative response ([6]; HIV-positive patient fourteen): + (+, Positive (Stimulation Index [SI] > 2.0))
- T-cell proliferative response ([6]; HIV-positive patient nine): + (+, Positive (Stimulation Index [SI] > 2.0))
- T-cell proliferative response ([6]; HIV-positive patient one): + (+, Positive (Stimulation Index [SI] > 2.0))
- T-cell proliferative response ([6]; HIV-positive patient seven): − (−, Negative (SI < 2.0))
- T-cell proliferative response ([6]; HIV-positive patient six): − (−, Negative (SI < 2.0))
- T-cell proliferative response ([6]; HIV-positive patient ten): + (+, Positive (Stimulation Index [SI] > 2.0))
- T-cell proliferative response ([6]; HIV-positive patient thirteen): − (−, Negative (SI < 2.0))
- T-cell proliferative response ([6]; HIV-positive patient three): + (+, Positive (Stimulation Index [SI] > 2.0))
- T-cell proliferative response ([6]; HIV-positive patient twelve): + (+, Positive (Stimulation Index [SI] > 2.0))
- T-cell proliferative response ([6]; HIV-positive patient two): − (−, Negative (SI < 2.0))
- T-cell proliferative response ([6]; Normal-1 (HIV-seronegative)): − (−, Negative (SI < 2.0))
- T-cell proliferative response ([6]; Normal-2 (HIV-seronegative)): − (−, Negative (SI < 2.0))

Sequence: YLRDQQLLGIWGC [Peptide 61]
- proliferative response of PBMCs (PBMCs; monkey, in vivo): PMBCs from two of the monkeys showed good proliferative responses
- T-cell proliferative response to immunizing peptide and HIV Env protein gp160 [1]: induced a T-cell response against both the immunizing peptide and the HIV Env protein
- antibodies recognizing recombinant gp160 [1]: did not produce antibodies that could recognize recombinant gp160
- T-cell proliferation responses [1]: relatively good T-cell proliferation responses
- % Specific lysis at various E:T ratios 12.5:1 [2]: 4.0%
- % Specific lysis at various E:T ratios 25:1 [2]: 4.0%
- % Specific lysis at various E:T ratios 50:1 [2]: 14.5%
- % Specific lysis at various E:T ratios 100:1 [2]: 15.0%
- CTL activity against peptide-pulsed autologous B-LCLs [2]: significant CTL activity
- specific lysis of peptide-pulsed target cells [2]: also observed

Sequence: LWDQSLKPCVKLT [Peptide 111]
- proliferative response of PBMCs (PBMCs; three monkeys immunized with peptide cocktail): good response
- T-cell proliferation responses [1]: relatively good T-cell proliferation responses

From patent US7306804B2 (priority 1998, dated 2007)
